Results from PMC3135650 (Molecular pharmaceutics, 2009).
“Also recorded” adds a separate entry of the source.

Key:
Bcrp [1] = target: T1, Bcrp (Rattus norvegicus, UniProt Q80W57); assay: GF120918 inhibition of nitrofurantoin biliary excretion in SCRH
T1 sequence (Q80W57 1-657): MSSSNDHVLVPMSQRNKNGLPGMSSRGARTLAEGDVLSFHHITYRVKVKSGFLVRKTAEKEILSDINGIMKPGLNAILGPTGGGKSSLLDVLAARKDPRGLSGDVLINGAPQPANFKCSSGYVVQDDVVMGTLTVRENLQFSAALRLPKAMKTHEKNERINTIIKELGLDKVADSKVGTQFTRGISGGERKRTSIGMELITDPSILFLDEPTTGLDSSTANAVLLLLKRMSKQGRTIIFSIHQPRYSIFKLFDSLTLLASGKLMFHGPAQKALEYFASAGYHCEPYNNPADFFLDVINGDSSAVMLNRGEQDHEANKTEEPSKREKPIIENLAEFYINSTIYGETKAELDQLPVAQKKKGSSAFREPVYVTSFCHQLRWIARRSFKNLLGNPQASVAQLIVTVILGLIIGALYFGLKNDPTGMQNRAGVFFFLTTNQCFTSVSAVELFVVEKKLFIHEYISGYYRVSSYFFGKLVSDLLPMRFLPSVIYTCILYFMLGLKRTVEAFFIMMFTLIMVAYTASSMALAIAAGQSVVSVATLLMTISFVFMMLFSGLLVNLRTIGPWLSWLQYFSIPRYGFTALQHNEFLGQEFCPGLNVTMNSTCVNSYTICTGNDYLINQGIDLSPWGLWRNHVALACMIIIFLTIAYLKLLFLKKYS

P-gp = conditions: 2 µM GF120918, SCRH; cited from earlier work
Bcrp [2] = target: T1, Bcrp; assay: Biliary excretion; format: in vitro ADME; conditions: 10 min; for Nitrofurantoin BEI, % of control (Ad-siNT) / Nitrofurantoin in vitro Clbiliary, % of control (Ad-siNT): 5 µM nitrofurantoin
Bcrp [3] = conditions: cited from earlier work
[4] = test system: sandwich-cultured rat hepatocytes (SCRH); conditions: 10-min incubation; digoxin 1 µM, nitrofurantoin 5 µM
BCRP [5] = conditions: read-out: Ki or IC50 values for BCRP; cited from earlier work
Caco-2 cells = conditions: 10 µM FTC; cited from earlier work
[6] = 2 µM GF120918, 5 µM nitrofurantoin, 10 min, day 4 SCRH
[7] = 2 µM GF120918, 5 µM nitrofurantoin, 10 min, day 4 SCRH, data not shown
[8] = day 4 Ad-si01Bcrp-infected SCRH
[9] = day 6 Ad-si01Bcrp-infected SCRH

COc1cc2c(cc1OC)CN(CCc1ccc(NC(=O)c3cccc4c(=O)c5cccc(OC)c5[nH]c34)cc1)CC2 [GF120918, N-(4-[2-(1,2,3,4-tetrahydro-6,7-dimethoxy-2-isoquinolinyl)ethyl]-phenyl)-9,10-dihydro-5-methoxy-9-oxo-4-acridine carboxamide]
Effect on cellular accumulation of nitrofurantoin (Bcrp [1]; [6]): significantly increased | Effect on nitrofurantoin accumulation in cells + BC (Bcrp [1]; [6]): did not affect | Nitrofurantoin BEI in presence of inhibitor, % of control (Bcrp [1]; [7]): ~ 8 % of control | Nitrofurantoin in vitro Clbiliary in presence of inhibitor, % of control (Bcrp [1]; [7]): ~ 8 % of control | Inhibition of nitrofurantoin biliary excretion (Bcrp [1]; 2 µM GF120918, SCRH): almost completely inhibited | P-gp-mediated biliary excretion of digoxin, % of control (P-gp): ~ 25 % of control

O=C1CN(/N=C/c2ccc([N+](=O)[O-])o2)C(=O)N1 [nitrofurantoin]
Nitrofurantoin accumulation in cells + BC versus control (Ad-siNT) (Bcrp [2]; Ad-si01Bcrp-infected SCRH, 5 µM): similar | Cellular accumulation of nitrofurantoin versus control (Ad-siNT) (Bcrp [2]; Ad-si01Bcrp-infected day 4 and day 6 SCRH, 5 µM): increased markedly; also recorded: significantly increased | Nitrofurantoin BEI, % of control (Ad-siNT) (Bcrp [2]; [8]): ~ 24 % of control | Nitrofurantoin in vitro Clbiliary, % of control (Ad-siNT) (Bcrp [2]; [8]): ~ 27 % of control | Nitrofurantoin BEI, % of control (Ad-siNT) (Bcrp [2]; [9]): 11 % of control | Nitrofurantoin in vitro Clbiliary, % of control (Ad-siNT) (Bcrp [2]; [9]): 14 % of control | Nitrofurantoin biliary excretion in Abcg2-knockout mice (Bcrp [3]): almost completely abolished

C[C@H]1O[C@@H](O[C@H]2[C@@H](O)C[C@H](O[C@H]3[C@@H](O)C[C@H](O[C@H]4CC[C@@]5(C)[C@H](CC[C@@H]6[C@@H]5C[C@@H](O)[C@]5(C)[C@@H](C7=CC(=O)OC7)CC[C@]65O)C4)O[C@@H]3C)O[C@@H]2C)C[C@H](O)[C@@H]1O [digoxin]
Accumulation in cells + BC and cells, day 6 versus day 4 SCRH [4]: lower | Effect of Bcrp knockdown on digoxin accumulation (cells + BC or cells), BEI or in vitro Clbiliary (Bcrp [2]; Ad-si01Bcrp-infected day 4 or day 6 SCRH, 1 µM digoxin): unaffected; also recorded: did not affect

COc1ccc2c3c([nH]c2c1)[C@H](C=C(C)C)N1C(=O)[C@@H]2CCCN2C(=O)[C@@H]1C3 [FTC, fumitremorgin C]
IC50 (BCRP [5]): 300 to 1300 nM | Effect on digoxin transport in Caco-2 cells (Caco-2 cells): inhibited
